Laboratory results as given in patent US20190224147A1, “CETP MODULATOR FOR USE IN THE TREATEMENT OF EYE DISEASE” (Hoffmann-La Roche Inc., priority 2013, published 2019).
Marks after values point to notes of the source that are not given here.

Tests used:
[1] = Golden Syrian hamsters study b: lutein and zeaxanthin levels in plasma and liver; format: in vivo; conditions: hamsters fed 0.1% FLORAGLO, 14 days, dalcetrapib 0.320% (~300 mg/kg) or anacetrapib 0.024% (~25 mg/kg) in diet
Procedure: (§1) Hamsters (7 weeks-old) were fed a standard rodent chow diet containing 4.5% fat and 0.05% cholesterol and coconut oil (70 g/kg dry food) for 14 days. After 2 weeks of high-fat diet feeding, hamsters were allocated to 3 experimental treatment groups of 10 animals each based on plasma lipid levels, and provided the same diet as before supplemented with 0.1% (w/w) FLORAGLO (same composition as for Study 2) and either no treatment (group 1), dalcetrapib at 0.320% (w:w, ˜300 mg/kg, group 2), or anacetrapib at 0.024% (w:w, ˜25 mg/kg, group 3). After 14 days of treatment, plasma and livers were collected for lutein and zeaxanthin analysis as described in study a.

[2] = Golden Syrian hamsters study b: additional variables measured (cholesterol fractions, triglycerides); format: in vivo; conditions: 14 days, dalcetrapib ~300 mg/kg or anacetrapib ~25 mg/kg in diet
Procedure: as §1, with “3).” for “3). After 14 days of treatment, plasma and livers were collected for lutein and zeaxanthin analysis as described in study a.”

ICAM-1 = conditions: pre-treatment of human aortic endothelial cells; Martin K R et al, Atherosclerosis 2000; cited from earlier work
VCAM-1 expression = conditions: pre-incubation of human aortic endothelial cells; Martin K R et al, Atherosclerosis 2000; cited from earlier work
E-selectin expression = conditions: pre-incubation of human aortic endothelial cells; Martin K R et al, Atherosclerosis 2000; cited from earlier work
[3] = Golden Syrian hamsters study a: lutein and zeaxanthin levels in plasma, liver and eyecups (HPLC-MS); format: in vivo; conditions: hamsters fed 0.1% FLORAGLO, dalcetrapib 0.375% food admixture (~400 mg/kg), 14 days
Procedure: Hamsters (7 weeks-old) were fed a standard rodent chow diet containing 4.5% fat and 0.05% cholesterol and coconut oil (70 g/kg dry food) for 14 days. After two weeks of feeding, hamsters were allocated to 2 experimental groups of 10 animals and given the same diet as before supplemented with 0.1% (w:w) FLORAGLO (lutein 5.2%, zeaxanthin 0.5%, DSM Nutritional Products): group 1 received no treatment, group 2 was given dalcetrapib as a 0.375% food admixture (˜400 mg/kg).
After 14 days of treatment and 4 hours of fasting, plasma, liver and eyes were collected and kept frozen until analysis. Lutein and zeaxanthin levels in plasma, liver and the pooled eyecups from 2 hamsters were determined by HPLC-MS using cryptoxanthin as internal standard. Plasma samples were directly extracted with hexane/ethyl acetate in dark environment in the presence of BHT. Liver samples and pooled eye cups (n=4) were first homogenized in the presence of BHT using an appropriate solvent in a Precellys tissue homogenizer followed by saponification prior extraction with hexane/ethyl acetate. The organic phase was washed with water. All organic phases were dried and reconstituted in methanol containing 0.1%. HPLC-MS was accomplished on a Waters TQ-S in APCI mode coupled to an Acquity I-class UPLC (Waters AG, Baden-Dättwil) on an ACCLAIM C30 RP column (Thermo Fisher Scientific, Reinach).

Structure (SMILES) | Change in liver lutein, in % vs control [1] | Change in liver zeaxanthin, in % vs control [1] | Change in plasma lutein, in % vs control [1] | Change in plasma zeaxanthin, in % vs control [1] | Triglycerides, in % vs control [2] | VLDL-C, in % vs control [2] | reduced the expression of ICAM-1 (ICAM-1) | reduced VCAM-1 expression (VCAM-1 expression) | reduced E-selectin expression (E-selectin expression) | further results
COc1cc(F)c(C(C)C)cc1-c1ccc(C(F)(F)F)cc1CN1C(=O)O[C@H](c2cc(C(F)(F)F)cc(C(F)(F)F)c2)[C@@H]1C [anacetrapib] | −32% | −31% | ns | ns | ns | ns | – | – | – | HDL-C, in % vs control [2]: +54*** %; LDL-C, in % vs control [2]: −99*** %; Total cholesterol, in % vs control [2]: +28** %
CC1=C(/C=C/C(C)=C/C=C/C(C)=C/C=C/C=C(C)/C=C/C=C(C)/C=C/C2=C(C)CCCC2(C)C)C(C)(C)CCC1 [beta-carotene] | – | – | – | – | – | – | 11% | 29% | 38% | –
CCC(CC)CC1(C(=O)Nc2ccccc2SC(=O)C(C)C)CCCCC1 [dalcetrapib, S-[2-([[1-(2-ethylbutyl)-cyclohexyl]-carbonyl]amino)phenyl]2-methylpropanethioate] | +90% | +109% | +95% | +101% | −37** % | −27* % | – | – | – | Change in liver lutein, in % vs control ([3]; liver): +107%; Change in liver zeaxanthin, in % vs control ([3]; liver): +222.9%; Change in plasma lutein, in % vs control ([3]; plasma): +55.7%; Change in plasma zeaxanthin, in % vs control ([3]; plasma): +164%; Change in eyecups lutein, in % vs control ([3]; pooled eyecups): +164.6%; Change in eyecups zeaxanthin, in % vs control ([3]; pooled eyecups): +114%
CC1=C[C@H](O)CC(C)(C)[C@H]1/C=C/C(C)=C/C=C/C(C)=C/C=C/C=C(C)/C=C/C=C(C)/C=C/C1=C(C)C[C@@H](O)CC1(C)C [lutein, (3R,3′R,6′R)-β,ε-Carotene-3,3′-diol] | – | – | – | – | – | – | 14% | 28% | 34% | –
CC(C)=CCC/C(C)=C/C=C/C(C)=C/C=C/C(C)=C/C=C/C=C(C)/C=C/C=C(C)/C=C/C=C(\C)CCC=C(C)C [lycopene] | – | – | – | – | – | – | 18% | 13% | – | –
